Experimental findings from patent US7829665B2 (priority 2005, dated 2010) are described below.

The test system of test [1] is HCV sub-genomic replicon in GS4.3 cells (HuH-7 hepatoma cells). Put plainly: Quantitation by ELISA of Neomycin phosphotransferase II (NPTII) in the HCV sub-genomic replicon, GS4.3. Type of test: cell-based, hepatitis C virus. As to conditions: Hepatitis C virus, Huh-7; GS4.3 cells, 72 h incubation, NPTII ELISA; read-out: Replicon EC50. An outline of the steps:
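HuH-7 GS4.3 cells carrying HCV sub-genomic replicon 1377/NS3-3′, treated 72 h at 37 °C without G418 with 3-fold dilutions from 10 μM to 56 pM (1% DMSO). NPTII in cell lysates measured by direct ELISA with TMB readout at 450 nm. EC50 from 4-parameter fit of percent DMSO-control signal.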
(In general: ELISA stands for enzyme-linked immunosorbent assay.)

Test [2] concerns the target T1, full-length NS3/NS4A-2 (HCV NS3 protease) (Hepatitis C virus genotype 1a, UniProt P27958).
T1 construct: Recombinant E. coli or Baculovirus full-length NS3 was diluted to 3.33 μM with assay buffer; made in house; host or cells: E. coli or baculovirus (BV) expression system
Kind of test: NS3-NS4 protease assay / NS3 inhibition assay (RETS1 substrate, fluorescence kinetic read). The following applies: recombinant E. coli or Baculovirus full-length NS3 with NS4A-2; read-out: NS3-NS4 IC50. Type of test: biochemical. An outline of the steps: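 Full-length NS3 from E. coli (2 nM in assay) or baculovirus (3 nM) was precomplexed with excess NS4A-2 peptide, then preincubated 10 min at room temperature with serially diluted compounds starting at 50 microM. Reaction was started with RETS1 substrate at 8 μM before addition and read kinetically for 30 min (ex 335/em 495 nm). Four-parameter IC50s were converted to Ki by Cheng-Prusoff using Km 2.03 μM (E. coli) or 1.74 μM (BV).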

T1 sequence (P27958 1027-1657): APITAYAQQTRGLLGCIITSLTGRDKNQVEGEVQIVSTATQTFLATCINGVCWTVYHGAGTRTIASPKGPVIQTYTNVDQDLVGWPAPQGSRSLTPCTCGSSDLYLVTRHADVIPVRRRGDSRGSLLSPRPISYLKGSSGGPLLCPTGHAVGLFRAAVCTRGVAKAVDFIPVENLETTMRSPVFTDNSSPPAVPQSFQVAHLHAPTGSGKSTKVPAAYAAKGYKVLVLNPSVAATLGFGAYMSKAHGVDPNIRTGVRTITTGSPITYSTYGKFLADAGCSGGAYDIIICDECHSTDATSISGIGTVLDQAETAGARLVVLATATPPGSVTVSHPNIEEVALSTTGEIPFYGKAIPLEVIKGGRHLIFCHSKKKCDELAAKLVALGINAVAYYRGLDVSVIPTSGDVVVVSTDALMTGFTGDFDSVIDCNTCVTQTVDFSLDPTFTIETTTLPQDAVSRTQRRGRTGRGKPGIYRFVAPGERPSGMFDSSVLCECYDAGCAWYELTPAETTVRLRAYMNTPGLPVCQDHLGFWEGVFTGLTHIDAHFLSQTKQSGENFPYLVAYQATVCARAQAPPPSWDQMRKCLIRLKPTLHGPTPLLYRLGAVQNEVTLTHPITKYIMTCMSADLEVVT

On to `CC(C)(C)OC(=O)N[C@H]1CCCCC/C=C\[C@@H]2C[C@@]2(C(=O)NC(=O)c2ccccc2)NC(=O)[C@@H]2C[C@@H](OC(=O)N3Cc4ccccc4C3)CN2C1=O` [Compound 705], for which the EC50 (usually the concentration that produces a half-maximal response) in test [1] is less than 100 nM. The IC50 (as a rule, the concentration at which inhibition is half-maximal) in test [2] is less than 100 nM.
For `CC(C)(CO)C(=O)N[C@H]1CCCCC/C=C\[C@@H]2C[C@@]2(C(=O)NS(=O)(=O)C2CC2)NC(=O)[C@@H]2C[C@@H](OC(=O)N3Cc4cccc(F)c4C3)CN2C1=O` [Compound 254], the EC50 in test [1] was less than 1000 nM. The IC50 in test [2] was less than 100 nM.
The matching figures for `COCC1(S(=O)(=O)NC(=O)[C@@]23C[C@H]2/C=C\CCCCC[C@H](NC(=O)OC(C)(C)C)C(=O)N2C[C@H](OC(=O)N4Cc5ccccc5C4)C[C@H]2C(=O)N3)CC1` [Compound 103]: less than 100 nM and less than 100 nM.
The matching figures for `CC(C)(C)OC(=O)N[C@H]1CCCCC/C=C\[C@@H]2C[C@@]2(C(=O)NCc2ccc(C(O)C(F)(F)F)cc2)NC(=O)[C@@H]2C[C@@H](OC(=O)N3Cc4cccc(F)c4C3)CN2C1=O` (stereo partly drawn) [Compound 606]: less than 1000 nM and less than 1000 nM.
On to `CN(C)C(=S)NC(=O)[C@@]12C[C@H]1/C=C\CCCCC[C@H](NC(=O)OC(C)(C)C)C(=O)N1C[C@H](OC(=O)N3Cc4cccc(F)c4C3)C[C@H]1C(=O)N2` [Compound 236], for which, in test [1], the EC50 is less than 100 nM. Besides, the IC50 in test [2] was less than 100 nM.
Turning to `CC(C)(C)OC(=O)N[C@H]1CCCCC/C=C\[C@@H]2C[C@@]2(C(=O)Nc2nccs2)NC(=O)[C@@H]2C[C@@H](OC(=O)N3Cc4cccc(F)c4C3)CN2C1=O` [Compound 614], in test [1], the EC50 is less than 1000 nM. Moreover, the IC50 in test [2] was less than 1000 nM.
In the case of `O=C1N[C@]2(C(=O)NS(=O)(=O)C3CC3)C[C@H]2/C=C\CCCCC[C@H](NCc2ccccc2C(F)(F)F)C(=O)N2C[C@H](OC(=O)N3Cc4cccc(F)c4C3)C[C@@H]12` [Compound 917], the EC50 in test [1] is less than 100 nM. Moreover, in test [2], the IC50 is less than 100 nM.
Turning to `CC(C)(C)OC(=O)N[C@H]1CCC(F)(F)CC/C=C\[C@@H]2C[C@@]2(C(=O)O)NC(=O)[C@@H]2C[C@@H](OC(=O)N3Cc4ccccc4C3)CN2C1=O` [Compound 1007], the EC50 in test [1] is less than 10000 nM. Further, the IC50 in test [2] was less than 100 nM.
The matching figures for `CC(C)(C)c1c(N[C@H]2CCCCC/C=C\[C@@H]3C[C@@]3(C(=O)NS(=O)(=O)C3CC3)NC(=O)[C@@H]3C[C@@H](OC(=O)N4Cc5cccc(F)c5C4)CN3C2=O)c(=O)c1=O` [Compound 261]: less than 1000 nM and less than 100 nM.
In the case of `Cc1ccc(CN[C@H]2CCCCC/C=C\[C@@H]3C[C@@]3(C(=O)NC#N)NC(=O)C3C[C@@H](OC(=O)N4Cc5cccc(F)c5C4)CN3C2=O)o1` (stereo partly drawn) [Compound 643], the EC50 in test [1] is more than 10000 nM. In addition, the IC50 in test [2] was less than 1000 nM.
The matching figures for `N#CNC(=O)[C@@]12C[C@H]1/C=C\CCCCC[C@H](NC(=O)OC1CCCC1)C(=O)N1C[C@H](OC(=O)N3Cc4cccc(F)c4C3)CC1C(=O)N2` (stereo partly drawn) [Compound 637]: more than 10000 nM and less than 100 nM.
The matching figures for `CC(C)(C)OC(=O)N[C@H]1CCCCC/C=C\[C@@H]2C[C@@]2(C(=O)Nc2cc(C3CC3)[nH]n2)NC(=O)[C@@H]2C[C@@H](OC(=O)N3Cc4cccc(F)c4C3)CN2C1=O` [Compound 630]: less than 10000 nM and less than 1000 nM.
As for `CC(C)(C)OC(=O)N[C@H]1CCC(F)(F)CC/C=C\[C@@H]2C[C@@]2(C(=O)NS(=O)(=O)C2CC2)NC(=O)[C@@H]2C[C@@H](OC(=O)N3Cc4cccc(F)c4C3)CN2C1=O` [Compound 1002], the EC50 in test [1] was less than 100 nM. Also, the half-inhibitory concentration (IC50) in test [2] was less than 100 nM.
For the compound `CC(C)(C)OC(=O)N[C@H]1CCC(F)(F)CC/C=C\[C@@H]2C[C@@]2(C(=O)NS(=O)(=O)C2CC2)NC(=O)[C@@H]2C[C@@H](OC(=O)N3CCc4ccccc4C3)CN2C1=O` [Compound 1014], the EC50 in test [1] was less than 100 nM. Also, the IC50 in test [2] is less than 100 nM.
In the case of `CC(C)(C)OC(=O)N[C@H]1CCCCC/C=C\[C@@H]2C[C@@]2(C(N)=O)NC(=O)[C@@H]2C[C@@H](OC(=O)N3Cc4cccc(F)c4C3)CN2C1=O` [Compound 648], the EC50 in test [1] was more than 10000 nM. In test [2], the IC50 is less than 1000 nM.
